In patent US12077503B2, “Substituted cyclic amides and their use as herbicides” (FMC CORPORATION, priority 2015, dated 2024):

Legend:
Type in all cases: in vivo
[1] = test system: barnyardgrass (Echinochloa crus-galli); assay: Test A preemergence; conditions: for Plant response rating, Barnyardgrass: preemergence
Procedure, shortened: (§1)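 Preemergence soil spray on seeded pots or post-emergence spray on 1–2 leaf plants, in loam–sand blend. Greenhouse ~10 d. Visual rating 0–100 against untreated plants.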

[2] = test system: corn (Zea mays); assay: Test A preemergence; conditions: for Plant response rating, Corn: preemergence
Procedure, shortened: as §1

[3] = test system: crabgrass, large (Digitaria sanguinalis); assay: Test A preemergence; conditions: for Plant response rating, Crabgrass, Large: preemergence
Procedure, shortened: as §1

[4] = test system: giant foxtail (Setaria faberii); assay: Test A preemergence; conditions: for Plant response rating, Foxtail, Giant: preemergence
Procedure, shortened: as §1

[5] = test system: morningglory (Ipomoea spp.); assay: Test A preemergence; conditions: for Plant response rating, Morningglory: preemergence
Procedure, shortened: as §1

[6] = test system: pigweed (Amaranthus retroflexus); assay: Test A preemergence; conditions: for Plant response rating, Pigweed: preemergence
[7] = test system: velvetleaf (Abutilon theophrasti); assay: Test A preemergence; conditions: for Plant response rating, Velvetleaf: preemergence
Procedure, shortened: as §1

[8] = test system: wheat (Triticum aestivum); assay: Test A preemergence; conditions: for Plant response rating, Wheat: preemergence
Procedure, shortened: as §1

[9] = test system: barnyardgrass (Echinochloa crus-galli); assay: Test A postemergence
Procedure, shortened: as §1

[10] = test system: corn (Zea mays); assay: Test A postemergence
Procedure, shortened: as §1

[11] = test system: crabgrass, large (Digitaria sanguinalis); assay: Test A postemergence
Procedure, shortened: as §1

[12] = test system: giant foxtail (Setaria faberii); assay: Test A postemergence
Procedure, shortened: as §1

[13] = test system: morningglory (Ipomoea spp.); assay: Test A postemergence
Procedure, shortened: as §1

[14] = test system: pigweed (Amaranthus retroflexus); assay: Test A postemergence
Procedure, shortened: as §1

[15] = test system: velvetleaf (Abutilon theophrasti); assay: Test A postemergence
Procedure, shortened: as §1

[16] = test system: wheat (Triticum aestivum); assay: Test A postemergence
Procedure, shortened: as §1

[17] = test system: barnyardgrass (Echinochloa crus-galli); assay: Test B flooded paddy test; conditions: Flood, 250 g ai/ha; 0 to 100 scale where 0 is no effect and 100 is complete control; 13 to 15 d
Procedure, shortened: (§2)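 Compound goes directly into floodwater once pots are flooded 3 cm above soil, targeting plants at two leaves; the water depth is then held for the test duration. Plants sit 13–15 d in a greenhouse and are rated visually, 100 denoting complete control.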

[18] = test system: ducksalad (Heteranthera limosa); assay: Test B flooded paddy test; conditions: Flood, 250 g ai/ha; 0 to 100 scale where 0 is no effect and 100 is complete control; 13 to 15 d
Procedure, shortened: as §2

[19] = test system: rice (Oryra sativa); assay: Test B flooded paddy test; conditions: Flood, 250 g ai/ha; 0 to 100 scale where 0 is no effect and 100 is complete control; 13 to 15 d
Procedure, shortened: as §2

[20] = test system: sedge, umbrella (small-flower umbrella sedge, Cyperus difformis); assay: Test B flooded paddy test; conditions: Flood, 250 g ai/ha; for Sedge, Umbrella plant response rating: scale of 0 to 100 where 0 is no effect and 100 is complete control
Procedure, shortened: as §2

[21] = 125 g ai/ha, visual rating after approx. 10 d, 0 to 100 scale where 0 is no effect and 100 is complete control
[22] = 500 g ai/ha, 0 to 100 scale, 0 = no effect, 100 = complete control
[23] = 125 g ai/ha, postemergence, visual injury after approximately 10 d, 0 to 100 scale (0 no effect, 100 complete control)
[24] = 500 g ai/ha, postemergence, visual injury, 0 to 100 scale (0 no effect, 100 complete control), approx. 10 d
[25] = 125 g ai/ha, 0 to 100 scale (0 no effect, 100 complete control)
[26] = Preemergence, 500 g ai/ha, 0 is no effect, 100 is complete control
[27] = 500 g ai/ha, postemergence, 0 to 100 scale, 0 no effect, 100 complete control
[28] = Postemergence, 125 g ai/ha, visual injury, 0 to 100 scale (0 no effect, 100 complete control), approx. 10 d

## O=C1NCC(c2cccc(O)c2)C1C(=O)Nc1ccccc1F (racemic) [Compound 714]
[1]; [21]
  Plant response rating, Barnyardgrass: 0
[1]; [22]
  Plant response rating, Barnyardgrass: 0
[2]; [21]
  Plant response rating, Corn: 0
[2]; [22]
  Plant response rating, Corn: 0
[3]; [21]
  Plant response rating, Crabgrass, Large: 20
[3]; [22]
  Plant response rating, Crabgrass, Large: 30
[4]; [21]
  Plant response rating, Foxtail, Giant: 0
[4]; [22]
  Plant response rating, Foxtail, Giant: 20
[5]; [21]
  Plant response rating, Morningglory: 0
[5]; [22]
  Plant response rating, Morningglory: 0
[6]; [21]
  Plant response rating, Pigweed: 0
[6]; [22]
  Plant response rating, Pigweed: 0
[7]; [21]
  Plant response rating, Velvetleaf: 0
[7]; [22]
  Plant response rating, Velvetleaf: 0
[8]; [21]
  Plant response rating, Wheat: 0
[8]; [22]
  Plant response rating, Wheat: 0
[9]; [23]
  Plant response rating, Barnyardgrass: 0
[9]; [24]
  Plant response rating, Barnyardgrass: 0
[10]; [23]
  Plant response rating, Corn: 0
[10]; [24]
  Plant response rating, Corn: 0
[11]; [23]
  Plant response rating, Crabgrass, Large: 0
[11]; [24]
  Plant response rating, Crabgrass, Large: 0
[12]; [23]
  Plant response rating, Foxtail, Giant: 0
[12]; [24]
  Plant response rating, Foxtail, Giant: 0
[13]; [23]
  Plant response rating, Morningglory: 0
[13]; [24]
  Plant response rating, Morningglory: 0
[14]; [23]
  Plant response rating, Pigweed: 0
[14]; [24]
  Plant response rating, Pigweed: 0
[15]; [23]
  Plant response rating, Velvetleaf: 0
[15]; [24]
  Plant response rating, Velvetleaf: 0
[16]; [23]
  Plant response rating, Wheat: 0
[16]; [24]
  Plant response rating, Wheat: 0
[17]
  Plant response rating, Barnyardgrass: 0
[18]
  Plant response rating, Ducksalad: 0
[19]
  Plant response rating, Rice: 0
[20]
  Sedge, Umbrella plant response rating: 0

## O=C1NCC(c2cccc(O)c2)C1C(=O)Nc1cccc(F)c1F (racemic) [Compound 715]
[1]; [21]
  Plant response rating, Barnyardgrass: 0
[1]; [22]
  Plant response rating, Barnyardgrass: 0
[2]; [21]
  Plant response rating, Corn: 0
[2]; [22]
  Plant response rating, Corn: 0
[3]; [21]
  Plant response rating, Crabgrass, Large: 0
[3]; [22]
  Plant response rating, Crabgrass, Large: 0
[4]; [21]
  Plant response rating, Foxtail, Giant: 0
[4]; [22]
  Plant response rating, Foxtail, Giant: 0
[5]; [21]
  Plant response rating, Morningglory: 0
[5]; [22]
  Plant response rating, Morningglory: 0
[6]; [21]
  Plant response rating, Pigweed: 0
[6]; [22]
  Plant response rating, Pigweed: 0
[7]; [21]
  Plant response rating, Velvetleaf: 0
[7]; [22]
  Plant response rating, Velvetleaf: 0
[8]; [21]
  Plant response rating, Wheat: 0
[8]; [22]
  Plant response rating, Wheat: 0
[9]; [23]
  Plant response rating, Barnyardgrass: 0
[9]; [24]
  Plant response rating, Barnyardgrass: 0
[10]; [23]
  Plant response rating, Corn: 0
[10]; [24]
  Plant response rating, Corn: 0
[11]; [23]
  Plant response rating, Crabgrass, Large: 0
[11]; [24]
  Plant response rating, Crabgrass, Large: 0
[12]; [23]
  Plant response rating, Foxtail, Giant: 0
[12]; [24]
  Plant response rating, Foxtail, Giant: 0
[13]; [23]
  Plant response rating, Morningglory: 0
[13]; [24]
  Plant response rating, Morningglory: 0
[14]; [23]
  Plant response rating, Pigweed: 0
[14]; [24]
  Plant response rating, Pigweed: 0
[15]; [23]
  Plant response rating, Velvetleaf: 0
[15]; [24]
  Plant response rating, Velvetleaf: 0
[16]; [23]
  Plant response rating, Wheat: 0
[16]; [24]
  Plant response rating, Wheat: 0
[17]
  Plant response rating, Barnyardgrass: 0
[18]
  Plant response rating, Ducksalad: 0
[19]
  Plant response rating, Rice: 0
[20]
  Sedge, Umbrella plant response rating: 0

## CN(C)c1cccc(C2CNC(=O)C2C(=O)Nc2ccccc2F)c1 (stereo not drawn) [Compound 360]
[1]; [25]
  Plant response rating, Barnyardgrass: 0
[1]; [26]
  Barnyardgrass plant response rating (0 to 100 scale): 0
[2]; [25]
  Plant response rating, Corn: 0
[2]; [26]
  Corn plant response rating (0 to 100 scale): 0
[3]; [25]
  Plant response rating, Crabgrass, Large: 0
[3]; [26]
  Crabgrass, Large plant response rating (0 to 100 scale): 0
[4]; [25]
  Plant response rating, Foxtail, Giant: 0
[4]; [26]
  Foxtail, Giant plant response rating (0 to 100 scale): 0
[5]; [25]
  Plant response rating, Morningglory: 0
[5]; [26]
  Morningglory plant response rating (0 to 100 scale): 0
[6]; [25]
  Plant response rating, Pigweed: 0
[6]; [26]
  Pigweed plant response rating (0 to 100 scale): 0
[7]; [25]
  Plant response rating, Velvetleaf: 0
[7]; [26]
  Velvetleaf plant response rating (0 to 100 scale): 0
[8]; [25]
  Plant response rating, Wheat: 0
[8]; [26]
  Wheat plant response rating (0 to 100 scale): 0
[9]; [27]
  Plant response rating, Barnyardgrass: 0
[9]; [28]
  Plant response rating, Barnyardgrass: 0
[10]; [27]
  Plant response rating, Corn: 0
[10]; [28]
  Plant response rating, Corn: 0
[11]; [27]
  Plant response rating, Crabgrass, Large: 0
[11]; [28]
  Plant response rating, Crabgrass, Large: 0
[12]; [27]
  Plant response rating, Foxtail, Giant: 0
[12]; [28]
  Plant response rating, Foxtail, Giant: 0
[13]; [27]
  Plant response rating, Morningglory: 0
[13]; [28]
  Plant response rating, Morningglory: 0
[14]; [27]
  Plant response rating, Pigweed: 0
[14]; [28]
  Plant response rating, Pigweed: 0
[15]; [27]
  Plant response rating, Velvetleaf: 0
[15]; [28]
  Plant response rating, Velvetleaf: 0
[16]; [27]
  Plant response rating, Wheat: 0
[16]; [28]
  Plant response rating, Wheat: 0
[17]
  Plant response rating, Barnyardgrass: 0
[18]
  Plant response rating, Ducksalad: 0
[19]
  Plant response rating, Rice: 0
[20]; 0 to 100 scale where 0 is no effect and 100 is complete control, 13 to 15 d
  Plant response rating, Sedge, Umbrella: 0
